How the values were obtained:
Ovis aries = organism: Ovis aries; assay: Inhibition of sheep brain tubulin polymerization at 100 uM by DAPI staining-based fluorimetric method
[1] = Growth inhibition of human OVCAR3 cells at 10 uM after 48 hrs by SRB assay relative to control; type: functional; conditions: OVCAR-3, 48 h, read-out: GI
SR = assay: Growth inhibition of human SR cells at 10 uM after 48 hrs by SRB assay relative to control; type: functional; conditions: read-out: GI
SN12C = assay: Growth inhibition of human SN12C cells at 10 uM after 48 hrs by SRB assay relative to control; type: functional; conditions: read-out: GI
[2] = Growth inhibition of human HOP92 cells at 10 uM after 48 hrs by SRB assay relative to control; type: functional; conditions: HOP-92, 48 h, read-out: GI
[3] = Growth inhibition of human RPMI8226 cells at 10 uM after 48 hrs by SRB assay relative to control; type: functional; conditions: RPMI-8226, 48 h, read-out: GI
NCI-H23 = assay: Growth inhibition of human NCI-H23 cells at 10 uM after 48 hrs by SRB assay relative to control; type: functional; conditions: NCI-H23, 48 h, read-out: GI
SK-MEL-5 = assay: Growth inhibition of human SK-MEL-5 cells at 10 uM after 48 hrs by SRB assay relative to control; type: functional; conditions: SK-MEL-5, 48 h, read-out: GI
[4] = Growth inhibition of human Hs 578T cells at 10 uM after 48 hrs by SRB assay relative to control; type: functional; conditions: read-out: GI
KM12 = assay: Growth inhibition of human KM12 cells at 10 uM after 48 hrs by SRB assay relative to control; type: functional; conditions: KM12, 48 h, read-out: GI
U-251 = assay: Growth inhibition of human U251 cells at 10 uM after 48 hrs by SRB assay relative to control; type: functional; conditions: U-251, 48 h, read-out: GI
CCRF-CEM = assay: Growth inhibition of human CCRF-CEM cells at 10 uM after 48 hrs by SRB assay relative to control; type: functional; conditions: read-out: GI
[5] = Growth inhibition of human HL-60(TB) cells at 10 uM after 48 hrs by SRB assay relative to control; type: functional; conditions: HL-60, 48 h, read-out: GI
[6] = Growth inhibition of human HCT116 cells at 10 uM after 48 hrs by SRB assay relative to control; type: functional; conditions: HCT-116, 48 h, read-out: GI
[7] = Growth inhibition of human HCT15 cells at 10 uM after 48 hrs by SRB assay relative to control; type: functional; conditions: HCT-15, 48 h, read-out: GI
[8] = Growth inhibition of human SF268 cells at 10 uM after 48 hrs by SRB assay relative to control; type: functional; conditions: SF-268, 48 h, read-out: GI
[9] = Growth inhibition of human UACC62 cells at 10 uM after 48 hrs by SRB assay relative to control; type: functional; conditions: UACC-62, 48 h, read-out: GI
SK-MEL-2 = assay: Growth inhibition of human SK-MEL-2 cells at 10 uM after 48 hrs by SRB assay relative to control; type: functional; conditions: SK-MEL-2, 48 h, read-out: GI
MDA-MB-435 = assay: Growth inhibition of human MDA-MB-435 cells at 10 uM after 48 hrs by SRB assay relative to control; type: functional; conditions: MDA-MB-435, 48 h, read-out: GI
K562 = assay: Growth inhibition of human K562 cells at 10 uM after 48 hrs by SRB assay relative to control; type: functional; conditions: K562, 48 h, read-out: GI
[10] = Growth inhibition of human SKOV3 cells at 10 uM after 48 hrs by SRB assay relative to control; type: functional; conditions: SK-OV-3, 48 h, read-out: GI
A498 = assay: Growth inhibition of human A498 cells at 10 uM after 48 hrs by SRB assay relative to control; type: functional; conditions: A498, 48 h, read-out: GI
[11] = Growth inhibition of human SW620 cells at 10 uM after 48 hrs by SRB assay relative to control; type: functional; conditions: SW-620, 48 h, read-out: GI
SK-MEL-28 = assay: Growth inhibition of human SK-MEL-28 cells at 10 uM after 48 hrs by SRB assay relative to control; type: functional; conditions: SK-MEL-28, 48 h, read-out: GI
NCI-H226 = assay: Growth inhibition of human NCI-H226 cells at 10 uM after 48 hrs by SRB assay relative to control; type: functional; conditions: NCI-H226, 48 h, read-out: GI
[12] = Growth inhibition of human RXF393 cells at 10 uM after 48 hrs by SRB assay relative to control; type: functional; conditions: RXF 393, 48 h, read-out: GI
EKVX = assay: Growth inhibition of human EKVX cells at 10 uM after 48 hrs by SRB assay relative to control; type: functional; conditions: read-out: GI
[13] = Growth inhibition of human Caki1 cells at 10 uM after 48 hrs by SRB assay relative to control; type: functional; conditions: CAKI-1, 48 h, read-out: GI
[14] = Growth inhibition of human BT549 cells at 10 uM after 48 hrs by SRB assay relative to control; type: functional; conditions: BT-549, 48 h, read-out: GI
[15] = Growth inhibition of human MOLT4 cells at 10 uM after 48 hrs by SRB assay relative to control; type: functional; conditions: MOLT-4, 48 h, read-out: GI
786-0 = assay: Growth inhibition of human 786-0 cells at 10 uM after 48 hrs by SRB assay relative to control; type: functional; conditions: 786-0, 48 h, read-out: GI
[16] = Growth inhibition of human UO31 cells at 10 uM after 48 hrs by SRB assay relative to control; type: functional; conditions: UO-31, 48 h, read-out: GI
Malme-3M = assay: Growth inhibition of human MALME-3M cells at 10 uM after 48 hrs by SRB assay relative to control; type: functional; conditions: read-out: GI
[17] = Growth inhibition of human OVCAR8 cells at 10 uM after 48 hrs by SRB assay relative to control; type: functional; conditions: OVCAR-8, 48 h, read-out: GI
[18] = Growth inhibition of human HOP62 cells at 10 uM after 48 hrs by SRB assay relative to control; type: functional; conditions: HOP-62, 48 h, read-out: GI
HT-29 = assay: Growth inhibition of human HT-29 cells at 10 uM after 48 hrs by SRB assay relative to control; type: functional; conditions: HT-29, 48 h, read-out: GI
[19] = Growth inhibition of human TK10 cells at 10 uM after 48 hrs by SRB assay relative to control; type: functional; conditions: TK-10, 48 h, read-out: GI
M14 = assay: Growth inhibition of human M14 cells at 10 uM after 48 hrs by SRB assay relative to control; type: functional; conditions: M14, 48 h, read-out: GI
MDA-MB-468 = assay: Growth inhibition of human MDA-MB-468 cells at 10 uM after 48 hrs by SRB assay relative to control; type: functional; conditions: MDA-MB-468, 48 h, read-out: GI

SMILES | inhibition (Ovis aries) | inhibition of growth at 10 µM [1] | inhibition of growth at 10 µM (SR) | inhibition of growth at 10 µM (SN12C) | inhibition of growth at 10 µM [2] | inhibition of growth at 10 µM [3] | inhibition of growth at 10 µM (NCI-H23) | inhibition of growth at 10 µM (SK-MEL-5) | inhibition of growth at 10 µM [4] | inhibition of growth at 10 µM (KM12) | inhibition of growth at 10 µM (U-251) | inhibition of growth at 10 µM (CCRF-CEM) | inhibition of growth at 10 µM [5] | inhibition of growth at 10 µM [6] | inhibition of growth at 10 µM [7] | inhibition of growth at 10 µM [8] | inhibition of growth at 10 µM [9] | inhibition of growth at 10 µM (K562) | inhibition of growth at 10 µM [10] | inhibition of growth at 10 µM (A498) | further results
O=C(c1ccc(Cl)cc1Cl)N1c2ccccc2Sc2ccccc21 | 44% | 41% | 68% | 33% | 28% | 45% | 26% | 65% | 4% | 50% | 67% | 43% | 64% | 77% | 70% | 50% | 57% | 100% | 31% | 31% | inhibition of growth at 10 µM (SK-MEL-2): 21%; inhibition of growth at 10 µM (MDA-MB-435): 52%; inhibition of growth at 10 µM [11]: 62%; inhibition of growth at 10 µM (SK-MEL-28): 35%; inhibition of growth at 10 µM (NCI-H226): 32%; inhibition of growth at 10 µM [12]: 30%; inhibition of growth at 10 µM (EKVX): 24%; inhibition of growth at 10 µM [13]: 50%; inhibition of growth at 10 µM [14]: 45%; inhibition of growth at 10 µM [15]: 74%; inhibition of growth at 10 µM (786-0): 33%; inhibition of growth at 10 µM [16]: 35%; inhibition of growth at 10 µM (Malme-3M): 36%; inhibition of growth at 10 µM [17]: 49%; inhibition of growth at 10 µM [18]: 35%; inhibition of growth at 10 µM (HT-29): 52%; inhibition of growth at 10 µM [19]: 27%; inhibition of growth at 10 µM (M14): 40%; inhibition of growth at 10 µM (MDA-MB-468): 49%
COc1ccc(C(=O)N2c3ccccc3Sc3ccccc32)c(F)c1 | 75% | 100% | 77% | 39% | 58% | 81% | 68% | 84% | 84% | 77% | 66% | 83% | 85% | 80% | 73% | 47% | 77% | 87% | 62% | 98% | inhibition of growth at 10 µM (MDA-MB-435): 100%; inhibition of growth at 10 µM [11]: 85%; inhibition of growth at 10 µM (SK-MEL-28): 41%; inhibition of growth at 10 µM (NCI-H226): 54%; inhibition of growth at 10 µM [12]: 100%; inhibition of growth at 10 µM (EKVX): 56%; inhibition of growth at 10 µM [13]: 55%; inhibition of growth at 10 µM [14]: 77%; inhibition of growth at 10 µM [15]: 73%; inhibition of growth at 10 µM (786-0): 77%; inhibition of growth at 10 µM [16]: 51%; inhibition of growth at 10 µM (Malme-3M): 53%; inhibition of growth at 10 µM [17]: 68%; inhibition of growth at 10 µM [18]: 63%; inhibition of growth at 10 µM (HT-29): 95%; inhibition of growth at 10 µM [19]: 55%; inhibition of growth at 10 µM (M14): 98%; inhibition of growth at 10 µM (MDA-MB-468): 100%
O=C(c1ccc(F)cc1F)N1c2ccccc2Sc2ccccc21 | 25% | 43% | 72% | 9% | 39% | 47% | 23% | 68% | 16% | 62% | 66% | 38% | 71% | 73% | 76% | 46% | 68% | 82% | 22% | 38% | inhibition of growth at 10 µM (SK-MEL-2): 19%; inhibition of growth at 10 µM (MDA-MB-435): 80%; inhibition of growth at 10 µM [11]: 66%; inhibition of growth at 10 µM (SK-MEL-28): 41%; inhibition of growth at 10 µM (NCI-H226): 30%; inhibition of growth at 10 µM [12]: 35%; inhibition of growth at 10 µM (EKVX): 20%; inhibition of growth at 10 µM [13]: 51%; inhibition of growth at 10 µM [14]: 43%; inhibition of growth at 10 µM [15]: 69%; inhibition of growth at 10 µM (786-0): 26%; inhibition of growth at 10 µM [16]: 31%; inhibition of growth at 10 µM (Malme-3M): 44%; inhibition of growth at 10 µM [17]: 35%; inhibition of growth at 10 µM [18]: 33%; inhibition of growth at 10 µM (HT-29): 68%; inhibition of growth at 10 µM [19]: 23%; inhibition of growth at 10 µM (M14): 35%; inhibition of growth at 10 µM (MDA-MB-468): 64%
O=C(c1ccc2c(c1)Sc1ccccc1N2)c1c[nH]c2ccccc12 | 66% | 100% | 76% | 57% | 28% | 56% | 68% | 89% | 100% | 87% | 83% | 81% | 85% | 82% | 68% | 45% | 46% | 81% | 85% | 92% | inhibition of growth at 10 µM (SK-MEL-2): 94%; inhibition of growth at 10 µM [11]: 71%; inhibition of growth at 10 µM (SK-MEL-28): 54%; inhibition of growth at 10 µM (NCI-H226): 18%; inhibition of growth at 10 µM [12]: 91%; inhibition of growth at 10 µM (EKVX): 47%; inhibition of growth at 10 µM [13]: 66%; inhibition of growth at 10 µM [14]: 69%; inhibition of growth at 10 µM [15]: 73%; inhibition of growth at 10 µM (786-0): 50%; inhibition of growth at 10 µM [16]: 58%; inhibition of growth at 10 µM (Malme-3M): 49%; inhibition of growth at 10 µM [17]: 77%; inhibition of growth at 10 µM [18]: 61%; inhibition of growth at 10 µM (HT-29): 99%; inhibition of growth at 10 µM [19]: 63%; inhibition of growth at 10 µM (M14): 86%; inhibition of growth at 10 µM (MDA-MB-468): 100%

Reference: ChEMBL document CHEMBL3792297, “Studies on phenothiazines: New microtubule-interacting compounds with phenothiazine A-ring as potent antineoplastic agents” (Bioorg Med Chem, 2016)
